Measured values: patent publication US5100880A, “Novel betalactam elastase inhibitors containing phosphorous acid derivatives at the 4-position of the 2-azetidinone” (Merck & Co., Inc., priority 1991, dated 1992)

Biological target: T1, human granulocyte elastase (Homo sapiens, UniProt P08246)
T1 construct: Crude extract of human polymorphonuclear leukocytes (PMN) containing elastase activity; endogenous in cells; host or cells: human polymorphonuclear leukocytes (PMN), crude extract
T1 sequence (P08246 30-247 limits assumed): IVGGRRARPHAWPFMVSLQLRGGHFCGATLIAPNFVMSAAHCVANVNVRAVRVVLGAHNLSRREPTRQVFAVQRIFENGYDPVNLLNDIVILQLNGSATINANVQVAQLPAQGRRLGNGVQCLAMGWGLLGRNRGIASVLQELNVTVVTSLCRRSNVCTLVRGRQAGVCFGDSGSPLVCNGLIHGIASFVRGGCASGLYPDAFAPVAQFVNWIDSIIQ
Experiment: Inhibition of human polymorphonuclear leukocyte elastase via hydrolysis of Boc-AAPAN or Boc-AAPVN
Assay type: biochemical
Conditions: crude extract of human PMN; 0.05M TES buffer pH 7.5; substrate 0.2 mM Boc-AAPAN or Boc-AAPVN; read-out: kobs /I, second order rate constant for inactivation of the enzyme
Protocol: Enzyme Assays for the Inhibition of Human Polymorphonuclear Leukocyte Elastase Via Hydrolysis of N-t-Boc-alanyl-alanyl-prolylalanine-p-nitroanilide (Boc-AAPAN) or N-t-Boc-alanyl-prolylvaline-p-nitroanilide (Boc-AAPVN) Reagent
0.05M TES (N-tris[hydroxymethyl]methyl-2-amino-ethanesulfonic acid) Buffer, pH 7.5.
0.2 mM Boc-AAPAN or Boc-AAPVN.
To prepare substrate, the solid was first dissolved in 10.0 ml DMSO. Buffer at pH 7.5 was then added to a final volume of 100 ml.
Crude extract of human polymorphonuclear leukocytes (PMN) containing elastase activity.
Inhibitors (azetidinones) to be tested dissolved in DMSO just before use.
To 1.0 ml of 0.2 mM Boc-AAPAN in a cuvette, 0.01-0.1 ml of DMSO with or without inhibitor was added. After mixing, a measurement was taken at 410 mμ to detect any spontaneous hydrolysis due to presence of test compound. 0.05 Milliliters of PMN extract was then added and the ΔOD/min at 410 mμ was measured and recorded. Beckman model 35 spectrophotometer was used.
Results are also expressed as Ki, the micromolar concentration of the inhibitor (μM) giving 50% of the control enzyme activity; or as ^k obs/I which is the second order rate constant in per mole per second for inactivation of the enzyme.
The elastase activity in the crude PMN extract may vary from one preparation to another. […]

SMILES | kinact/KI
CCCC(NC(=O)N1C(=O)C(CC)(CC)C1Oc1ccc(CP(=O)(O)O)cc1)c1ccc(C)cc1 [Example 2, (4S)-3,3-Diethyl-1-[(R)-α-n-propyl-(4-methyl)-benzylaminocarbonyl)]-4-[4-(dihydroxyphosphinylmethyl)phenoxy]-azetidin-2-one] | 220000 M⁻¹ s⁻¹
CCCC(NC(=O)N1C(=O)C(CC)(CC)C1Oc1ccc(CP(=O)(OCC)OCC)cc1)c1ccc(C)cc1 [Example 1, (4S)-3,3-Diethyl-1-[(R)-α-n-propyl(4-methyl)-benzylaminocarbonyl)]-4-[4-(diethoxyphosphinylmethyl)-phenoxy]-azetidin-2-one] | 1.2e+06 M⁻¹ s⁻¹
